Series [1] addresses Amyloid-beta precursor protein (Homo sapiens, UniProt P05067). Description: Modulation of amyloid beta 42 in human H4 cells expressing APP751 incubated overnight by ELISA. Type of series: cell-based. In general terms: ELISA stands for enzyme-linked immunosorbent assay.
The species named for the next series is Homo sapiens. The series is described as follows: Selectivity ratio, ratio of IC50 for gamma-secretase (unknown origin) to IC50for Notch (unknown origin).
Series [2] is described as follows: Metabolic stability in human liver microsomes assessed as half life. Type of series: ADME, Microsome. For orientation: Microsomes from liver hold many membrane-bound enzymes, among them those of drug oxidation.
Series [3] deals with Gamma-secretase. Description: Inhibition of gamma-secretase (unknown origin) assessed as inhibition of Amyloid beta 40 production by cell-free assay. It is filed as protein-complex assay, Homo sapiens.
In series [4] the target is Gamma-secretase. Description: Inhibition of gamma-secretase (unknown origin) assessed as inhibition of Amyloid beta 42 production by cell-free assay. It is filed as protein-complex assay, Homo sapiens.
Series [5] is described as follows: Ratio of drug concentration in Tg2576 mouse brain to plasma at 1 to 30 mg/kg, po. Type of series: ADME, organism-based. Particulars: dose 1-30 mg/kg, read-out: BPR.
Series [6] can be described thus: Toxicity in Sprague-Dawley rat assessed as maximum tolerated dose administered orally upto 28 days consecutively. Particulars: in vivo, route po, time < 28 day.
In series [7] the test system is Mus musculus. The series is described as follows: Modulation of gamma secretase in hippocampus of C57BL mouse assessed as reduction in amyloid beta 42 at 3 mg/kg, po measured for 0.5 to 18 hrs by ELISA relative to control. Type of series: organism-based. Also noted: scale not given: the % may be the effect or the level left. The following applies: time 0.5-18 hrs.

Series [8] concerns Mus musculus. Description: Modulation of gamma secretase in hippocampus of C57BL mouse assessed as reduction in amyloid beta 42 at 10 mg/kg, po measured for 0.5 to 18 hrs by ELISA relative to control. Type of series: organism-based. The following applies: filed as modulator, time 0.5-18 hrs.
Series [9] in a line: Inhibition of amyloid beta (unknown origin) production. Details: species or system Homo sapiens.
Series [10] is described as follows: Inhibition of Notch cleavage in transgenic HEK293 cells. It is filed as cell-based. Particulars: Homo sapiens.
Series [11] can be described thus: Modulation of gamma-secretase in human H4 cells expressing APPswe mutant assessed as reduction in amyloid beta 42 by ELISA. It is filed as cell-based.
Series [12] can be described thus: Oral bioavailability in rat. Particulars: in vivo. Type of series: ADME, organism-based.
Series [13] in a line: Half life in rat. The following applies: in vivo. Type of series: ADME.
Series [14] is described as follows: Inhibition of Notch in human H4 cells. Type of series: cell-based.
Series [15] has as its target Gamma-secretase. The series is described as follows: Inhibition of gamma-secretase in human H4 cells assessed as reduction in amyloid beta 42. It is filed as cell-based.
The test system of series [16] is Mus musculus. Description: Antialzheimer activity in Tg2576 mouse model assessed as decrease in amyloid beta 42 level at 10 mg/kg measured on day 8. Type of series: functional. Also noted: scale not given: the % may be the effect or the level left. Particulars: time 8 day.
In series [17] the test system is Mus musculus. Description: Antialzheimer activity in Tg2576 mouse model assessed as decrease in amyloid beta 40 level at 10 mg/kg measured on day 8. Type of series: functional. Details: scale not given: the % may be the effect or the level left. The following applies: time 8 day.
Series [18] is described as follows: Inhibition of Notch (unknown origin) by cell-based assay. Particulars: Homo sapiens.

A word on the EC50: it is the concentration that produces a half-maximal response. In general, half-life refers to how long it takes for the measured level to halve. As usually defined, the MTD is the highest dose tested that stayed within the study's limit of toxicity. As usually defined, the inhibition is the share of the control response that was lost under treatment. As usually defined, the IC50 is the point on the concentration scale where inhibition reaches its midpoint. A word on the bioavailability: it is the share of a dose that reaches the circulation, judged against a reference dose that is usually intravenous.

Where only a bound is given, the exact number is not on record here.

Chain of Amyloid-beta precursor protein (P05067 whole entry): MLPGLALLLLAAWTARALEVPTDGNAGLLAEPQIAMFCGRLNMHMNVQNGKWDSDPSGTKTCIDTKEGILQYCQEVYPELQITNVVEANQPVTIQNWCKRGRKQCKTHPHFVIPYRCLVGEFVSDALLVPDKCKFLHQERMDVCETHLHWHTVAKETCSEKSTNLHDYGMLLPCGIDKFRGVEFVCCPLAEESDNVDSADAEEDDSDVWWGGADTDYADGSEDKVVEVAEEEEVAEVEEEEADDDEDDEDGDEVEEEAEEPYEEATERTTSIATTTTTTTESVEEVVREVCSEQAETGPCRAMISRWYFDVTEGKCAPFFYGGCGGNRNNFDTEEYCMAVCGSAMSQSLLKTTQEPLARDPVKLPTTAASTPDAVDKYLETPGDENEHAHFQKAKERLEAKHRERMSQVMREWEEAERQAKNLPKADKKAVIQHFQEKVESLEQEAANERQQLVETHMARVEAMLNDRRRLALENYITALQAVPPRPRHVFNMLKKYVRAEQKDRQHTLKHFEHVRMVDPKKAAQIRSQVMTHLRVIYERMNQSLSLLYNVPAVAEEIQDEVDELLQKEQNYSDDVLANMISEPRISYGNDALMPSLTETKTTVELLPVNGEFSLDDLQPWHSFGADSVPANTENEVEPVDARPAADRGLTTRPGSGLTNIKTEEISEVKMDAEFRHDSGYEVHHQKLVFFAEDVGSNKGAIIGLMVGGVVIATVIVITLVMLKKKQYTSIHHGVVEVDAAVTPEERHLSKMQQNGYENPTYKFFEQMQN

For the compound `COc1nc(C2=NOC[C@H](c3cc4ccccc4o3)N2)ccc1-n1cnc(C)c1`, the EC50 in series [1] is 35 nM.

With `O=S(=O)(N[C@H](CO)C(C(F)(F)F)C(F)(F)F)c1ccc(Cl)s1` [BEGACESTAT], the Ratio IC50 in the series listed under Homo sapiens stood at 16.8. Moreover, the half-life in [2] came to 1.5 h. Further, the EC50 on Gamma-secretase [3] is 14.8 nM; at Gamma-secretase [4], 12.4 nM. Also, in [5], the Kp is > 1. In addition, the maximum tolerated dose (MTD) at 672 h in series [6] turned out to be 2000 mg/kg/day.

Turning to `COc1cc(-c2nnc3n2CCC[C@]3(Oc2cc(F)c(F)c(F)c2)C(C)(C)O)ccc1-c1cnc(C)o1`, the Activity with Mus musculus [7] amounted to 23.2%. For the same compound, the inhibition in the series with Mus musculus [8] was determined as 46.5%.

For the compound `C[C@H](NC(=O)[C@@H](O)c1cc(F)cc(F)c1)C(=O)N[C@@H]1C(=O)N(C)c2ccccc2-c2ccccc21`, the half-maximal inhibitory concentration (IC50) stood at 0.082 nM in series [9] and 0.39 nM in series [10].

With `O=C(O)C1(c2ccc(-c3ccc(Cl)c(Cl)c3)c(F)c2)CC1`, the IC50 in series [11] amounted to 3600 nM. Besides, the bioavailability in series [12] turned out to be 50%. In addition, in series [13], the half-life was 20 h.

Consider `CC(C)[C@H](O)C(=O)N[C@@H](C)C(=O)N[C@@H]1C(=O)N(C)CCc2ccccc21`, for which the figures for the IC50 (in [14]; at Gamma-secretase [15]) were 14.1 nM and 10.9 nM, respectively. In addition, the Activity with Mus musculus [16] and in the series with Mus musculus [17] was 22% in each case.

Turning to `C[C@H](NC(=O)CCC(F)(F)F)C(=O)N[C@@H]1C(=O)N(CCO)c2ncccc2-c2ccccc21`, in [18], the IC50 came to 0.41 nM.

These data come from ChEMBL document CHEMBL5126536, “Small molecules targeting γ-secretase and their potential biological applications” (Eur J Med Chem, 2022).
